The subject of assay [1] is Myzus persicae (Green Peach Aphid). Nature of the assay: Myzus persicae (Green Peach Aphid) feeding/residual contact activity, preventive; sprayed sunflower leaf discs. Type of assay: in vivo. Conditions: Pirimicarb alone. From the text:
(§1) A synergistic effect exists whenever the action of an active ingredient combination is greater than the sum of the actions of the individual components.
(§2) The action to be expected E for a given active ingredient combination obeys the so-called COLBY formula and can be calculated as follows (COLBY, S. R. “Calculating synergistic and antagonistic responses of herbicide combination”. Weeds, Vol. 15, pages 20-22; 1967): […]
(§3) ppm=milligrams of active ingredient (=a.i.) per liter of spray mixture
(§4) X=% action by active ingredient A) using p ppm of active ingredient
(§5) Y=% action by active ingredient B) using q ppm of active ingredient.
(§6) According to COLBY, the expected (additive) action of active ingredients A)+B) using p+q ppm of active ingredient is If the action actually observed (O) is greater than the expected action (E), then the action of the combination is super-additive, i.e. there is a synergistic effect. In mathematical terms the synergism factor SF corresponds to O/E. In the agricultural practice an SF of ≧1.2 indicates significant improvement over the purely complementary addition of activities (expected activity), while an SF of ≦0.9 in the practical application routine signals a loss of activity compared to the expected activity.
Myzus persicae (Green Peach Aphid): feeding/residual contact activity, preventive
Sunflower leaf discs were placed on agar in a 24-well microtiter plate and sprayed with the DMSO test solutions of Mixtures (as provided by Table 45). After drying, the leaf discs were infested with an aphid population of mixed ages. After an incubation period of 6 DAT (days after treatment), samples were checked for mortality.

The subject of assay [2] is Tetranychus urticae (Two-Spotted Spider Mite). Nature of the assay: Tetranychus urticae (Two-Spotted Spider Mite) feeding/contact activity, preventive; sprayed bean leaf discs. Type of assay: in vivo. Conditions: Pirimicarb alone.
Text: as §1, §2, §3, §4, §5, §6
Tetranychus urticae (Two-Spotted Spider Mite): feeding/contact activity, preventive
Bean leaf discs on agar in 24-well microtiter plates were sprayed with the DMSO test solutions of certain Mixtures (as provided by Table 45). After drying, the leaf discs were infested with mite populations of mixed ages. 8 days later, discs were checked for mortality against mobile stages.

On to `Cc1nc(N(C)C)nc(OC(=O)N(C)C)c1C` [Pirimicarb], for which the “AVERAGE DEAD IN % AFTER 6 DAYS, Pirimicarb” value in assay [1] (12.5 PPM AI, 6 DAT) is recorded as 0%; in assay [1] (25 PPM AI, 6 DAT) it was 17.5%; in assay [1] (25 PPM AI, 6 DAT (Table 47)) it was 17.5%; in assay [1] (50 PPM AI, 6 DAT), 65%; in assay [1] (100 PPM AI, 6 DAT), 87.5%; in assay [1] (200 PPM AI, 6 DAT), 100%. The “AVERAGE DEAD IN % AFTER 8 DAYS, Pirimicarb” value in assay [2] (25 PPM AI, mobile stages) is given as 0%; in assay [2] (50 PPM AI, mobile stages) it was 0%; in assay [2] (100 PPM AI, mobile stages), 0%; in assay [2] (200 PPM AI, mobile stages (Table 48)), 0%; in assay [2] (200 PPM AI, mobile stages (Table 49)), 0%; in assay [2] (400 PPM AI, mobile stages), 0%.

Values taken from patent US9603367B2, “Pesticidal mixtures including spiroheterocyclic pyrrolidine diones” (priority 2012, dated 2017).
